Test results published in PubChem BioAssay (NCI).
“And” between values parts separate entries of the source, which are not always exact repeats. Equal entries are not always repeated.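 Step 1: Grow cells in 96-well plates. Step 2: Expose to compound for 48 hours at 5 concentrations. Step 3: Interpolate endpoints linearly; if unreached, use highest concentration. At the GI50, growth is halved. TGI: concentration producing complete growth inhibition.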

Legend:
Assay in all cases: inhibition of tumour cell growth, NCI panel, 48 h
SK-MEL-2 melanoma = test system: SK-MEL-2 melanoma
ACHN renal = test system: ACHN renal
MDA-MB-435 = test system: MDA-MB-435
UO-31 renal = test system: UO-31 renal
KM12 colon = test system: KM12 colon
SF-539 CNS = test system: SF-539 CNS
HL-60(TB) leukemia = test system: HL-60(TB) leukemia
SK-MEL-28 melanoma = test system: SK-MEL-28 melanoma
DMS 273 small cell lung = test system: DMS 273 small cell lung
M19-MEL melanoma = test system: M19-MEL melanoma
SNB-78 CNS = test system: SNB-78 CNS
LXFL 529 NSCLC = test system: LXFL 529 NSCLC

SMILES	GI50 (SK-MEL-2 melanoma)	TGI (SK-MEL-2 melanoma)	GI50 (ACHN renal)	TGI (ACHN renal)	GI50 (MDA-MB-435)	TGI (MDA-MB-435)	GI50 (UO-31 renal)	TGI (UO-31 renal)	GI50 (KM12 colon)	TGI (KM12 colon)	GI50 (SF-539 CNS)	TGI (SF-539 CNS)	GI50 (HL-60(TB) leukemia)	TGI (HL-60(TB) leukemia)	GI50 (SK-MEL-28 melanoma)	TGI (SK-MEL-28 melanoma)	TGI (DMS 273 small cell lung) [µM]	TGI (M19-MEL melanoma) [µM]	TGI (SNB-78 CNS) [µM]	TGI (LXFL 529 NSCLC) [µM]
COc1cccc2c(Nc3ccc(C(=O)NCCN(C)C)cc3)cc(-c3ccccc3)nc12	17.9 µM	36.8 µM	17.6 µM	37.9 µM	22 µM	39.1 µM	13.9 µM	32.3 µM	19.7 µM	43.2 µM	19.1 µM	37.1 µM	14.9 µM	39.9 µM	37.1 µM	> 100 µM				
COc1ccc(Cn2cc(Cn3c(=O)c(-c4nc5ccccc5[nH]4)cc4ccccc43)nn2)c(OC)c1OC	0.676 µM	2.21 µM	0.476 µM and 0.68 µM	1.67 µM and 4.17 µM	0.0821 µM and 0.0453 µM	0.186 µM and 0.17 µM	0.576 µM and 0.749 µM	1.78 µM and 4.63 µM	0.226 µM and 0.186 µM	1.39 µM and 1.48 µM	0.144 µM and 0.206 µM	0.664 µM and 0.872 µM	0.114 µM and 0.306 µM	50 µM and > 100 µM	0.539 µM and 0.912 µM	1.66 µM and 4.61 µM				
CN1CCN(c2cc(Nc3cc(C4CC4)[nH]n3)nc(Nc3ccc(CC(=O)NCc4cccc(F)c4)cc3)n2)CC1	1.99 µM	9.32 µM	2.01 µM	10.6 µM	0.44 µM	2.63 µM	1.69 µM	4.73 µM	0.0671 µM	12.1 µM	0.858 µM	2.28 µM	0.713 µM	3.06 µM	0.971 µM	2.46 µM				
c1ccc2c(c1)ccc1c3ccccc3ccc21	> 50 µM	> 50 µM	> 50 µM	> 50 µM	> 50 µM	> 50 µM	> 50 µM	> 50 µM	> 50 µM	> 50 µM	> 50 µM	> 50 µM	> 50 µM	> 50 µM	> 50 µM	> 50 µM				
COc1ccc2sc3c(NCCCNCCO)nc4ccccc4c3c(=O)c2c1	2.08 µM	4.07 µM	1.63 µM	2.99 µM	1.61 µM	3.01 µM	1.56 µM	2.99 µM	1.62 µM	3.12 µM	1.65 µM	3.1 µM	1.98 µM	3.89 µM	1.8 µM	3.27 µM				
C=C1C(=O)O[C@H]2[C@H]1CC(=O)/C(C)=C\CC[C@@]1(C)O[C@@H]21	3.99 µg/mL	8.47 µg/mL	0.822 µg/mL	2.38 µg/mL	2.98 µg/mL	7.14 µg/mL	2.61 µg/mL	5.85 µg/mL	4.77 µg/mL	8.79 µg/mL	2.64 µg/mL	7.16 µg/mL	0.264 µg/mL	4.19 µg/mL	1.51 µg/mL	6.11 µg/mL				
CN(C)CCNC(=O)c1cccc2c1nc(-c1ccccn1)c1ccccc12		34 µM		35.3 µM				22.7 µM		> 100 µM		30.4 µM		34.8 µM		29.9 µM	29.9	32	67.9	
NCC(=O)CCC(=O)O	> 100 µM	> 100 µM	> 100 µM	> 100 µM	> 100 µM	> 100 µM	> 100 µM	> 100 µM	> 100 µM	> 100 µM	> 100 µM	> 100 µM	> 100 µM	> 100 µM	> 100 µM	> 100 µM				
CCCCc1nc2cc(/C=C/C(=O)NO)ccc2n1CCN(CC)CC	0.153 µM	0.506 µM	0.285 µM	1.44 µM	0.24 µM	0.855 µM	0.25 µM	4.92 µM	0.356 µM	5.73 µM	0.335 µM	18.5 µM	0.441 µM	> 100 µM	0.254 µM	1.58 µM				
C=CCNc1cccc2c1C(=O)c1ccccc1C2(O)CC=C (stereo not given)	20.7 µM	47.6 µM	28.5 µM	65.3 µM	24.6 µM	59 µM	27.7 µM	> 100 µM	23.6 µM	56.9 µM	19.5 µM	38.4 µM	47.2 µM	> 100 µM	27 µM	93.3 µM				
O=C1C(=O)c2c(nc3ncccn23)-c2ccccc21	0.243 µM	0.532 µM	0.174 µM	0.373 µM	0.114 µM	0.254 µM	0.187 µM	0.405 µM	0.678 µM	1.9 µM	0.188 µM	0.388 µM	0.247 µM	0.64 µM	0.21 µM	0.41 µM				
COP1(=S)OCC2CCC[C@@H]2O1 (stereo not given in full)		> 100 µM		> 100 µM		> 100 µM		> 100 µM		> 100 µM		> 100 µM		> 100 µM		> 100 µM				
CC1=N/C(=C\c2cccc3ccccc23)C(=O)O1		> 100 µM		> 100 µM				> 100 µM		> 100 µM		> 100 µM		> 100 µM		> 100 µM		> 100	> 100	> 100
CC(C)(C)c1nnc2n(c1=O)N=CC(c1ccc(Br)cc1)S2 (stereo not given)	25.3 µM	66.1 µM	29.6 µM	75.9 µM	27.9 µM	78.7 µM	20.7 µM	47.4 µM	26.1 µM	> 100 µM	19.7 µM	50.9 µM	39 µM	> 100 µM	34.2 µM	> 100 µM				
CCCCCCCCCC(=O)N[C@H]1CCc2cc(OC)c(OC)c(OC)c2-c2ccc(SC)c(=O)cc21				> 100 µM			0.0168 µM	44.2 µM		0.0436 µM		0.0491 µM		0.223 µM			0.295	67.4	38.9	96.7
Cc1[nH]nc(C(=O)Nc2n[nH]c3ccccc23)c1[N+](=O)[O-]	> 100 µM	> 100 µM	> 100 µM	> 100 µM	> 100 µM	> 100 µM	> 100 µM	> 100 µM	> 100 µM	> 100 µM	> 100 µM	> 100 µM	> 63 µM	> 96.1 µM	> 100 µM	> 100 µM				
